In the supplement of paper PMC9912026:
± gives the uncertainty stated by the source.

System: A375
Assay: pERK immunofluorescence, normalised; higher = more ERK phosphorylation
Conditions: vemurafenib 0 µM, drug treatment time 24 h
Method: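 A375 or A375 CRISPRa-EGFR (A375_Cra_F7_5/13) cells were adapted for 24 h to a cobimetinib dose series, with or without 1 uM vemurafenib, then stimulated with EGF (100 ng/mL) or mock medium and fixed at the indicated times. pERK was measured by immunofluorescence as the population mean normalised to baseline, with the SD of technical replicates (n=2).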

O=C(c1ccc(F)c(F)c1Nc1ccc(I)cc1F)N1CC(O)([C@@H]2CCCCN2)C1 [cobimetinib]
pERK immunofluorescence
Conditions | cobimetinib 31.62 pM | cobimetinib 0.0001 µM | cobimetinib 0.000316228 µM | cobimetinib 0.001 µM | cobimetinib 0.003162278 µM | cobimetinib 0.01 µM | cobimetinib 0.031622777 µM | cobimetinib 0.1 µM | cobimetinib 0.316227766 µM | cobimetinib 1 µM
EGF 0 ng/mL, time after EGF/mock 0.083 h | 0.965 ± 0.018 | 0.9579 ± 0.0028 | 0.873 ± 0.041 | 0.658 ± 0.028 | 0.313 ± 0.0071 | 0.16 ± 0.0032 | 0.1379 ± 0.0011 | 0.13 ± 0.0026 | 0.1264 ± 0.00022 | 0.1263 ± 0.00091
EGF 0 ng/mL, time after EGF/mock 0.5 h | 0.9998 ± 0.0072 | 0.958 ± 0.029 | 0.8944 ± 0.008 | 0.679 ± 0.0098 | 0.306 ± 0.013 | 0.157 ± 0.0021 | 0.135 ± 0.0013 | 0.1283 ± 0.00077 | 0.1262 ± 0.00025 | 0.126 ± 0.0013
EGF 0 ng/mL, time after EGF/mock 2 h | 0.961 ± 0.033 | 0.958 ± 0.053 | 0.904 ± 0.014 | 0.746 ± 0.025 | 0.358 ± 0.057 | 0.152 ± 0.0073 | 0.1311 ± 0.00015 | 0.1245 ± 0.00041 | 0.1235 ± 0.00032 | 0.1235 ± 0.00061
EGF 0 ng/mL, time after EGF/mock 8 h | 0.97332 ± 0.0006 | 0.972 ± 0.02 | 0.93 ± 0.011 | 0.7507 ± 0.0056 | 0.312 ± 0.032 | 0.132 ± 0.0023 | 0.1135 ± 0.001 | 0.113 ± 0.0043 | 0.105 ± 0.0012 | 0.1046 ± 0.00065
EGF 0 ng/mL, time after EGF/mock 24 h | 0.962 ± 0.021 | 0.985 ± 0.085 | 0.952 ± 0.037 | 0.817 ± 0.045 | 0.399 ± 0.058 | 0.1129 ± 0.00064 | 0.10189 ± 7.8e-06 | 0.103 ± 0.0015 | 0.1021 ± 0.00052 | 0.0982 ± 0.0013
EGF 100 ng/mL, time after EGF/mock 0.083 h | 1.19 ± 0.033 | 1.2 ± 0.04 | 1.133 ± 0.0081 | 1.18 ± 0.0047 | 1.39 ± 0.057 | 1.4 ± 0.028 | 1.37 ± 0.015 | 1.04 ± 0.03 | 0.268 ± 0.022 | 0.134 ± 0.0014
EGF 100 ng/mL, time after EGF/mock 0.5 h | 1.03 ± 0.057 | 1.03 ± 0.005 | 0.9538 ± 0.0018 | 0.887 ± 0.013 | 0.782 ± 0.024 | 0.594 ± 0.017 | 0.411 ± 0.015 | 0.333 ± 0.0083 | 0.336 ± 0.0073 | 0.144 ± 0.0022
EGF 100 ng/mL, time after EGF/mock 2 h | 0.959 ± 0.028 | 0.965 ± 0.052 | 0.891 ± 0.015 | 0.782 ± 0.013 | 0.4241 ± 0.0024 | 0.176 ± 0.003 | 0.136 ± 0.0016 | 0.1271 ± 0.00033 | 0.1234 ± 0.00085 | 0.12285 ± 0.00011
EGF 100 ng/mL, time after EGF/mock 8 h | 0.946 ± 0.016 | 0.9729 ± 0.00013 | 0.909 ± 0.046 | 0.786 ± 0.042 | 0.487 ± 0.036 | 0.168 ± 0.012 | 0.124 ± 0.0018 | 0.114 ± 0.0024 | 0.1065 ± 0.00016 | 0.1039 ± 0.00017
EGF 100 ng/mL, time after EGF/mock 24 h | 0.8607 ± 0.0067 | 0.897 ± 0.04 | 0.854 ± 0.023 | 0.773 ± 0.0081 | 0.518 ± 0.007 | 0.128 ± 0.0053 | 0.1071 ± 0.00016 | 0.1048 ± 0.00075 | 0.104 ± 0.00095 | 0.0978 ± 0.0009
